Measurements as given in patent publication US20140128357A1, “METHODS OF PRODUCING AND USING BRASSINOSTEROIDS TO PROMOTE GROWTH, REPAIR AND MAINTENANCE OF SKELETAL MUSCLE AND SKIN” (Rutgers University, priority 2010, published 2014).

How the values were obtained:
L6 rat myotubes = assay: Protein synthesis, [3H]-phenylalanine incorporation in myotubes; assay type: cell-based; details: for increase in protein synthesis above control levels: 4 h (FIG. 2A); for Protein synthesis (% increase over control): 4 h; for maximum increases in protein synthesis: dose response 0.3-30 μM (FIG. 8A)
Procedure, shortened: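 Differentiated L6 rat myotubes (2% serum, 7–9 days) treated in triplicate in serum-free DMEM with compound (10 μM) or 0.1% ethanol vehicle plus 0.5 μCi/mL [3H]-phenylalanine for 4 h. TCA-precipitated protein counted by scintillation, normalised to total protein; IGF-1 6.5 nM positive control.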

[1] = system: 3T3 Swiss fibroblast monolayers; assay: Scratch wound closure in vitro; assay type: cell-based, mouse; details: for Scratch wound closure at 5 μM, % of control: 12 h (Table 6); for Wound Closure (% over control): 10 μM, 12 h (Table 4)
Procedure: 3T3 fibroblasts were seeded into 24-well dishes at a concentration of 3×10^5 cells/ml and cultured to nearly confluent cell monolayers. On the day of the experiment, a linear wound was generated in the monolayer with a sterile 100 μl plastic pipette tip and any cellular debris was removed by washing cells once with sterile PBS. Fresh DMEM medium containing vehicle (0.1% ethanol), positive control (0.5% FBS), or various concentrations of the fractions, sub-fractions or pure compounds was added to a set of 3 wells per dose and incubated for 12 h at 37° C. with 5% CO2. Cells were then visualized with 20 μl of 10% methylene blue in PBS for 5 min. Three representative images of the scratched areas from each well were photographed at 0 and 12 h to estimate the scratch wound closure. Images were analyzed using ImageJ program (NIH, Bethesda, Md.) and % wound closure was calculated relative to vehicle control and was reported as wound closure % over control (Table 4). 3T3 Swiss fibroblast were seeded into 24-well tissue culture at a concentration of 3×10^5 cells/ml and cultured to nearly confluent cell monolayers. Then, a linear wound was generated in the monolayer with a sterile 100 μl plastic pipette tip. Any cellular debris was removed by washing with PBS. DMEM medium with vehicle (0.1% ethanol), FBS (1%, positive control), or various concentrations of brassinosteroids were added to a set of 3 wells per dose and incubated for 12 h at 37° C. with 5% CO2. Cells were visualized in 10% methylene blue for 5 minutes. Three representative images from each well of the scratched areas under each condition were photographed to estimate the relative migration of cells at 0 and 12 h post-treatment. Data were analyzed using ImageJ software available online from the National Institutes of Health (rsbweb.nih.gov/ij/) by calculating the percentage of scratch closure at each dose point relative to control.

CC[C@@H](C(C)C)[C@H](O)[C@@H](O)[C@@H](C)[C@H]1CC[C@H]2[C@@H]3COC(=O)[C@H]4C[C@H](O)[C@H](O)C[C@]4(C)[C@H]3CC[C@]12C [Compound 1, (22S,23S,24S)-2α,3α,22,23-tetrahydroxy-24 ethyl-β-homo-7-oxo-5α-cholestane-6-one]
increase in protein synthesis above control levels (L6 rat myotubes; 1 μM): 12.4±2.3%
time at which stimulated protein synthesis peaked (L6 rat myotubes; 3 μM, 1-24 h study): 3 h
Protein synthesis (% increase over control) (L6 rat myotubes; 10 μM): 37.2 ± 5.9 %
increase in protein synthesis above control levels (L6 rat myotubes; 10 μM): 34.9±3.1%
Protein synthesis (% increase over control) (L6 rat myotubes; 10 μM, listed as HB): 37.2±5.9%
increase in protein synthesis above control levels (L6 rat myotubes; 20 μM): 36.9±2.9%
maximum increases in protein synthesis (L6 rat myotubes): 36.9±2.9%
EC50 (L6 rat myotubes; read-out: 50% effective dose for protein synthesis): 3 µM
Scratch wound closure at 5 μM, % of control [1]: 30 ± 4.2 %
Scratch wound closure at 5 μM, % of control ([1]; listed as HB): 30±4.2%
Wound Closure (% over control) [1]: 30.2 ± 11.2 %

CC[C@@H](C(C)C)[C@H](O)[C@@H](O)[C@@H](C)[C@H]1CC[C@H]2[C@@H]3CC(=O)[C@H]4C[C@H](O)[C@H](O)C[C@]4(C)[C@H]3CC[C@]12C [Compound 2, (22S,23S,24S)-2α,3α, 22,23-tetrahydroxy-24-ethyl-5α-cholestan-6-one]
Protein synthesis (% increase over control) (L6 rat myotubes; 10 μM): 41.0 ± 2.7 %
Protein synthesis (% increase over control) (L6 rat myotubes; 10 μM, listed as (22S,23S)-homocastasterone): 41.0±2.7%
maximum increases in protein synthesis (L6 rat myotubes): 40.7±4.9%
Scratch wound closure at 5 μM, % of control [1]: 32.9 ± 4.1 %
Wound Closure (% over control) [1]: 32.9 ± 14.1 %

CC[C@@H](C(C)C)[C@H](O)[C@@H](O)[C@@H](C)[C@H]1CC[C@H]2[C@@H]3CC(=O)N[C@H]4C[C@H](O)[C@H](O)C[C@]4(C)[C@H]3CC[C@]12C [Compound 5, (22S,23S,24S)-2α,3α-22,23-tetrahydroxy-24-ethyl-B-homo-6-aza-5α-cholestan-7-one]
effect of structural modification on activation of protein synthesis, in words (L6 rat myotubes; 10 μM): complete loss of activation of protein synthesis
Protein synthesis (% increase over control) (L6 rat myotubes; 10 μM): 3.3 ± 12.4%
Scratch wound closure at 5 μM, % of control [1]: 13.0 ± 0.7%
fibroblast migration activity in words ([1]; 0.1-10 μM, 12 h): no effect on fibroblast migration
